In US9073876B2, “Flap modulators” (JANSSEN PHARMACEUTICA NV, priority 2013, dated 2015):

Assays:
[1] = tested on: leukotriene pathway in human whole blood (LTB4 levels); experiment: Human whole blood assay (LTB4); format: cell-based; settings: human whole blood diluted 1:1 in RPMI, stimulated with calcium ionophore A23187; single replicate
Procedure: (§1) The ability of the compounds of the present invention to treat a FLAP-mediated disease and/or disorder, or associated symptoms or complications thereof, was determined using the following procedures. Binding assay data represent the average value obtained from two different assay plates, with samples run in duplicate on each plate. Human whole blood assay data represent a single replicate on an assay plate using whole blood from at least one healthy donor.
An in vitro cellular assay was performed using human whole blood collected in heparin-containing tubes, which was used to test the ability of compounds to modulate the leukotriene pathway in human whole blood. The blood was diluted 1:1 in RPMI medium, pre-incubated for 15 min at 37° Celsius with test compounds at various concentrations, and then stimulated with calcium ionophore, A23187 (7 μg/mL), for 30 min at 37° Celsius. The samples were then centrifuged and plasma was removed. The plasma was diluted in assay buffer and LTB4 levels were measured using a commercial kit (Enzo Life Sciences). The concentration of each compound that was required for half-maximal inhibition (modulation) of recombinant enzyme activity (IC50) was calculated by a 4-parameter equation using the program GraphPad Prism (GraphPad software).

human FLAP = human FLAP (Homo sapiens (Human), UniProt P20292); experiment: FLAP binding assay (HTRF); settings: human FLAP-containing membranes, HTRF format; average of two assay plates, duplicates; read-out: FLAP Binding wild type HTRF Ki
Procedure: as §1
Data are expressed as a HTRF ratio.

human FLAP, sequence (P20292 whole entry): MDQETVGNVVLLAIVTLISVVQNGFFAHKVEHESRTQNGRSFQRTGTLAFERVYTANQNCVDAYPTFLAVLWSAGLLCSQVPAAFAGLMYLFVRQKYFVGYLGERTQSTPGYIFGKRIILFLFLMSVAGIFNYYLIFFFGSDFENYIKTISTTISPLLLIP

| IC50 [1] [µM] | Ki (human FLAP) [µM] | Compound |
| --- | --- | --- |
| 0.68 | 0.366 | Nc1cnc(-c2ccc(C3CCC3)c(OCC(O)Cn3cnccc3=O)c2F)cn1 (racemic) [Example 52, racemic 3-(3-(3-(5-Aminopyrazin-2-yl)-6-cyclobutyl-2-fluorophenoxy)-2-hydroxypropyl)pyrimidin-4(3H)-one] |
| 0.645 | 0.138 | Nc1cnc(-c2ccc(C3CCC3)c(OCC(O)Cn3ncccc3=O)c2F)cn1 (racemic) [Example 53, racemic 2-(3-(3-(5-Aminopyrazin-2-yl)-6-cyclobutyl-2-fluorophenoxy)-2-hydroxypropyl)pyridazin-3(2H)-one] |
| 0.909 | 0.296 | Nc1cnc(-c2ccc(C3CCC3)c(OCC(O)Cn3ccncc3=O)c2F)cn1 (racemic) [Example 54, racemic 1-(3-(3-(5-Aminopyrazin-2-yl)-6-cyclobutyl-2-fluorophenoxy)-2-hydroxypropyl)pyrazin-2(1H)-one] |
| 0.555 | 0.152 | Nc1cnc(-c2ccc(C3CCC3)c(OCC(O)CNc3cncnc3)c2F)cn1 (racemic) [Example 55, racemic 1-(3-(5-Aminopyrazin-2-yl)-6-cyclobutyl-2-fluorophenoxy)-3-(pyrimidin-5-ylamino)propan-2-ol] |
| 0.345 | 0.036 | Nc1cnc(-c2ccc(C3CCC3)c(OCC(O)CNc3cnccn3)c2F)cn1 (racemic) [Example 57, racemic 1-(3-(5-Aminopyrazin-2-yl)-6-cyclobutyl-2-fluorophenoxy)-3-(pyrazin-2-ylamino)propan-2-ol] |
| 0.374 | 0.03 | Nc1cnc(NCC(O)COc2c(C3CCC3)ccc(-c3cnc(N)cn3)c2F)nc1 (racemic) [Example 58, racemic 1-(3-(5-Aminopyrazin-2-yl)-6-cyclobutyl-2-fluorophenoxy)-3-((5-aminopyrimidin-2-yl)amino)propan-2-ol] |
| 1.54 | 0.327 | Nc1cnc(-c2ccc(C3CCC3)c(OCC(O)CNc3cc(N)ncn3)c2F)cn1 (racemic) [Example 59, racemic 1-(3-(5-Aminopyrazin-2-yl)-6-cyclobutyl-2-fluorophenoxy)-3-((6-aminopyrimidin-4-yl)amino)propan-2-ol] |
| 0.697 | 0.262 | Nc1cnc(-c2ccc(C3CCC3)c(OCC(O)Cn3ccnc3)c2F)cn1 (racemic) [Example 61, racemic 1-(3-(5-Aminopyrazin-2-yl)-6-cyclobutyl-2-fluorophenoxy)-3-(1H-imidazol-1-yl)propan-2-ol] |
| 0.832 | 0.315 | Nc1cnc(-c2ccc(C3CCC3)c(OCC(O)Cn3cncn3)c2F)cn1 (racemic) [Example 62, racemic 1-(3-(5-Aminopyrazin-2-yl)-6-cyclobutyl-2-fluorophenoxy)-3-(1H-1,2,4-triazol-1-yl)propan-2-ol] |
| 0.212 | 0.12 | Nc1cnc(-c2ccc(C3CCC3)c(OCC(O)Cn3ccnn3)c2F)cn1 (racemic) [Example 63, racemic 1-(3-(5-Aminopyrazin-2-yl)-6-cyclobutyl-2-fluorophenoxy)-3-(1H-1,2,3-triazol-1-yl)propan-2-ol] |
| 0.275 | 0.086 | Nc1cnc(-c2ccc(C3CCC3)c(OCC(O)Cn3nccn3)c2F)cn1 (racemic) [Example 64, racemic 1-(3-(5-Aminopyrazin-2-yl)-6-cyclobutyl-2-fluorophenoxy)-3-(2H-1,2,3-triazol-2-yl)propan-2-ol] |
| 0.736 | – | Nc1cnc(-c2ccc(C3CCC3)c(OCc3cc(Cl)ccc3Cl)c2F)cn1 [Example 38, 5-{4-Cyclobutyl-3-[(2,5-dichlorobenzyl)oxy]-2-fluorophenyl}pyrazin-2-amine] |
| 0.175 | – | Nc1cnc(-c2ccc(C3CCC3)c(OCc3nc(C4CC4)no3)c2F)cn1 [Example 48, 5-{4-Cyclobutyl-3-[(3-cyclopropyl-1,2,4-oxadiazol-5-yl)methoxy]-2-fluorophenyl}pyrazin-2-amine] |
| 1.15 | – | CC(C)(C)OC(=O)COc1c(C2CCC2)ccc(-c2cnc(N)cn2)c1F [Example 49, tert-Butyl [3-(5-aminopyrazin-2-yl)-6-cyclobutyl-2-fluorophenoxy]acetate] |
| 0.413 | – | Cc1nc(COc2c(C3CCC3)ccc(-c3cnc(N)cn3)c2F)no1 [Example 70, 5-{4-Cyclobutyl-2-fluoro-3-[(5-methyl-1,2,4-oxadiazol-3-yl)methoxy]phenyl}pyrazin-2-amine] |
| 1.02 | – | CCOC(=O)c1ccc(COc2c(C3CCC3)ccc(-c3cnc(N)cn3)c2F)o1 [Example 73, Ethyl 5-{[3-(5-aminopyrazin-2-yl)-6-cyclobutyl-2-fluorophenoxy]methyl}furan-2-carboxylate] |
| 1.38 | – | Nc1cnc(-c2ccc(C3CCC3)c(OCc3cc(S(F)(F)(F)(F)F)ccc3F)c2F)cn1 [Example 77, 5-(4-Cyclobutyl-2-fluoro-3-{[2-fluoro-5-(pentafluoro-lambda~6~- sulfanyl)benzyl]oxy}phenyl)pyrazin-2-amine] |

| IC50 [1] [µM] | Ki (human FLAP) [µM] | Compound |
| --- | --- | --- |
| 10 | – | Nc1cnc(-c2ccc(C3CCC3)c(OCc3ccc(C(=O)O)o3)c2F)cn1 [Example 85, 5-{[3-(5-Aminopyrazin-2-yl)-6-cyclobutyl-2-fluorophenoxy]methyl}furan-2-carboxylic acid] |
| 0.0538 | – | CC(C)c1ccnc(Oc2c(C3CCC3)ccc(-c3cnc(N)cn3)c2F)n1 [Example 90, 5-(4-Cyclobutyl-2-fluoro-3-{[4-(1-methylethyl)pyrimidin-2-yl]oxy}phenyl)pyrazin-2-amine] |
| 6.66 | – | N#Cc1ccnc(Oc2c(C3CCC3)ccc(-c3cnc(N)cn3)c2F)n1 [Example 92, 2-[3-(5-Aminopyrazin-2-yl)-6-cyclobutyl-2-fluorophenoxy]pyrimidine-4-carbonitrile] |
| 0.375 | – | N#Cc1ccc(Oc2c(C3CCC3)ccc(-c3cnc(N)cn3)c2F)nc1 [Example 114, 6-[3-(5-Aminopyrazin-2-yl)-6-cyclobutyl-2-fluorophenoxy]pyridine-3-carbonitrile] |
| 0.503 | – | CS(=O)(=O)c1ccc(Oc2c(C3CCC3)ccc(-c3cnc(N)cn3)c2F)cc1 [Example 116, 5-{4-Cyclobutyl-2-fluoro-3-[4-(methylsulfonyl)phenoxy]phenyl}pyrazin-2-amine] |
| 0.0124 | – | CC(C)c1nccc(Oc2c(C3CCC3)ccc(-c3cnc(N)cn3)c2F)n1 [Example 135, 5-(4-Cyclobutyl-2-fluoro-3-{[2-(1-methylethyl)pyrimidin-4-yl]oxy}phenyl)pyrazin-2-amine] |
| 0.17 | – | NC(=O)c1ccc(Oc2c(C3CCC3)ccc(-c3cnc(N)cn3)c2F)cc1 [Example 155, 4-[3-(5-Aminopyrazin-2-yl)-6-cyclobutyl-2-fluorophenoxy]benzamide] |
| 2.37 | – | COc1c(C2CCC2)ccc(-c2cnc3c(c2)CCN3)c1F [Example 198, 5-(4-cyclobutyl-2-fluoro-3-methoxyphenyl)-2,3-dihydro-1H-pyrrolo[2,3-b]pyridine] |
| 0.0805 | – | CC(C)(C)c1ccc(-c2cnc(N)cn2)c(F)c1Oc1cc(N)ncn1 [Example 202, 6-[3-(5-Aminopyrazin-2-yl)-6-tert-butyl-2-fluorophenoxy]pyrimidin-4-amine] |
| 3.48 | – | N#Cc1nc(-c2ccc(C3CCC3)c(O)c2F)cnc1N [Example 222, 3-amino-6-(4-cyclobutyl-2-fluoro-3-hydroxyphenyl)pyrazine-2-carbonitrile] |
| 0.48 | – | COc1cc(Oc2c(C3CCC3)ccc(-c3cnc4[nH]ccc4c3)c2F)ncn1 [Example 228, 5-(4-cyclobutyl-2-fluoro-3-((6-methoxypyrimidin-4-yl)oxy)phenyl)-1H-pyrrolo[2,3-b]pyridine] |
| 0.417 | – | CC(C)(C)OC(=O)N1CCC(COc2c(C3CCC3)ccc(-c3cnc(N)cn3)c2F)C1 (centres unmarked) [Example 247, tert-butyl 3-((3-(5-aminopyrazin-2-yl)-6-cyclobutyl-2-fluoro-phenoxy)methyl)pyrrolidine-1-carboxylate] |
| 0.0853 | – | Nc1cnc(-c2ccc(C3CCC3)c(Oc3cnc4cc(F)c(F)cc4n3)c2F)cn1 [Example 271, 5-{4-Cyclobutyl-3-[(6,7-difluoroquinoxalin-2-yl)oxy]-2-fluorophenyl}pyrazin-2-amine] |
| 0.16 | – | COC(=O)c1ccc2oc(COc3c(C4CCC4)ccc(-c4cnc(N)cn4)c3F)nc2c1 [Example 274, Methyl 2-{[3-(5-aminopyrazin-2-yl)-6-cyclobutyl-2-fluorophenoxy]methyl}-1,3-benzoxazole-5-carboxylate] |
| 1.96 | – | COC(=O)c1ccc(O)c(NC(=O)COc2c(C3CCC3)ccc(-c3cnc(N)cn3)c2F)c1 [Example 275, Methyl 3-({[3-(5-aminopyrazin-2-yl)-6-cyclobutyl-2-fluorophenoxy]acetyl}amino)-4-hydroxybenzoate] |
| 0.167 | – | Nc1cnc(-c2ccc(C3CCCCC3)c(Oc3ncccn3)c2F)cn1 [Example 320, 5-(4-Cyclohexyl-2-fluoro-3-(pyrimidin-2-yloxy)phenyl)pyrazin-2-amine] |
| > 1 | – | Nc1cnc(-c2ccc(C3CCC3)c(Oc3nc4ncccc4s3)c2F)cn1 [Example 330, 5-(4-Cyclobutyl-2-fluoro-3-(thiazolo[4,5-b]pyridin-2-yloxy)phenyl)pyrazin-2-amine] |

| Compound | IC50 [1] [µM] | Ki (human FLAP) [µM] |
| --- | --- | --- |
| 6-cyclobutyl-2-fluoro-3-(5H-pyrrolo[2,3-b]pyrazin-2-yl)phenol [Example 176] | 0.892 | 0.1 |
